We go through three compounds from patent US20180292390A1 (priority 2015, published 2018).

Read-outs that look alike come from different tables or passages of the source.

One assay has as its system BBB, mouse brain. As to the kind of experiment: IgG immunostaining of brain cortex of PT-treated mice: BBB compromise. The assay is classed as in vivo. From the text:
This experiment followed the protocol of Example 1. This experiment involved S100B knockout (KO) mice, focusing on age-dependent increase of blood-brain barrier permeability and neuron-binding autoantibodies in SB100KO mice. […] Overlay of IgG immunostaining (red) with DAPI (blue) is presented from cortical region of the brain. (FIG. 18A) In untreated wild type (WT) brains, IgG-positive staining was confined to the microvasculature, indicating intact blood vessels (arrows). […] (FIG. 18C). In the S100BKO mouse brain (KO), even without PT treatment, IgG-positive leaks (marked by white dotted circle) were observed. (FIG. 18D).

For the next assay, the system named is retinal neurons. Description: SV2 and MAP2 immunostaining of retina of pertussis toxin treated mice. The assay is classed as in vivo. The settings on record: pertussis toxin treated wild type mice.
The subject of assay [1] is BRB in retinal slice cultures. Description: IgG immunostaining of retinal slice cultures: BRB breach. The assay is classed as cell-based. The settings on record: for IgG in neurons (indicator of BRB breach): retinal slices treated with histamine with or without lipoxin A4, FIG. 10. From the text:
Untreated samples served as control. The slices were then processed to generate cryosections for immunostaining. The location of IgG (an indicator of BRB breach) was monitored by immunostaining.

The test system of another assay is Muller cell processes. Description: GFAP immunostaining of ex vivo retinal culture: Muller cell processes. It counts as cell-based. The settings on record: retina untreated, histamine only, LXA4 only, or both, FIG. 15. On the procedure:
This experiment followed the protocol of Example 1. This example illustrates a new analysis added for drug evaluation in ex vivo retinal culture. […] Statistical significance is determined by two-tailed Student's t test. *, P<0.05; **, P<0.01; ***, P<0.001. Mean±SEM is plotted in the graph.

In assay [2] the test system is MAP2 expression in retinal slices. The settings on record: retinal slices treated with histamine 0, 30, 60 or 90 min, FIG. 9. From the text:
(§1) The slices were then processed to generate cryosections for immunostaining.

Assay [3] deals with GFAP expression in retinal slices. The settings on record: retinal slices treated with histamine 0, 30, 60 or 90 min, FIG. 8.
Excerpt: as §1

For assay [4], the system named is neurons in mouse brain organotypic cultures. The settings on record: 450 μM histamine; for vimentin-positive neurons: 2 mm MBO. On the procedure:
(§2) Primary mouse brain organotypic cultures were prepared as described previously ((Levin et al., Brain Res. 1298, 194-207, 2009). Briefly, the brains were removed from C57BL/6 mice (n=8) and cut to either 1 mm or 2 mm thickness using a tissue chopper. The brain slices were then placed in medium containing 25% inactivated horse serum, 25% Hanks' BSS, 50% DMEM, and 25 mg/l penicillin-streptomycin (Invitrogen, Carlsbad, Calif.) in 6-well culture dishes and maintained for 30 min at room temperature. The brain slices were then moved to either fresh media (control) or fresh media containing 450 μM histamine (Sigma, Saint Louis, Mo., Cat. No. H7125-1G) in 6-well culture dishes for 1 hr at 37° C. in a 5% CO2-enriched atmosphere. The brain slices were fixed with 4% paraformaldehyde (PFA) in PBS at room temperature and processed for immunohistochemistry as described below.
(§3) The mouse brain organotypic brain slices were stored in 4% PFA overnight at 4° C. The brain slices were then infiltrated with 10% sucrose in PBS for 2 hours, followed by 30% sucrose in PBS overnight at 4° C. under constant, gentle agitation. Using a Leica cryostat, 12 μm thick frozen sections were cut, mounted onto Fisher Super Frost Plus slides, and air dried. Immunohistochemistry for the paraffin-embedded tissues was carried out using procedure well known in the art. Briefly, tissues were deparaffinized using xylene and then rehydrated through a graded series of decreasing concentrations of ethanol. Next, protein antigenicity was enhanced by microwaving sections in citrate buffer. The paraffin-embedded tissues were then processed in the same way as the frozen sections described below.
(§4) Immunohistochemistry for the frozen sections was carried out as previously described ((Levin et al., Brain Res. 1298, 194-207, 2009). Briefly, tissues were rehydrated with PBS for 2 min. The endogenous peroxidase was quenched by treating sections with 0.3% H202 for 30 min. First, sections were incubated in blocking serum for 30 min. at room temperature, and then treated with primary antibodies at appropriate dilutions for 1 hr at room temperature. Next, sections were thoroughly rinsed with PBS, and sections were incubated with biotin-labeled secondary antibody for 30 min. at room temperature. Sections were then treated with the avidin-peroxidase-labeled biotin complex (ABC, Vector Labs, Foster City, Calif.) and visualized by treating with either 3-3-diaminobenzidine-4-HCL (DAB)/H2O2 (Biomeda, Foster City, Calif.) or NovaRed (Vector Labs, Foster City, Calif., Cat. No. SK-4800). Sections were then lightly counterstained with hematoxylin, dehydrated through increasing concentrations of ethanol, cleared in xylene and mounted in Permount. Specimens were examined and photographed with a Nikon FXA microscope, and digital images were recorded using a Nikon DXM1200F digital camera and processed using Image Pro Plus (Phase 3 Imaging, Glen Mills, Pa.) image software.
(§5) Leaky and non-leaky vessels, GFAP-positive and -negative astrocytes, and vimentin-positive and -negative neurons were counted in sections of primary mouse brain organotypic culture slices. Images were optimized and counting was performed using the counting feature of Adobe Photoshop CS3. Three sections were examined per treatment group, with at least ten viewing fields counted from each section, for a total of 30 viewing fields per treatment group. Only blood vessels with endothelial cell nuclei, astrocytes with their nuclei, and neurons with their nuclei within the plane of section were included in the count. […] The percentage of total leaky vessels, GFAP-positive astrocytes, and vimentin-positive neurons for histamine treated and control slices were determined.
(§6) Immunohistochemistry (IHC) was used to evaluate the effects of histamine on BBB permeability and the response of cells within the surrounding brain parenchyma.

In assay [5] the test system is astrocytes in mouse brain organotypic cultures. The settings on record: 450 μM histamine; for GFAP-positive astrocytes (GFAP expression): 1 hr, 2 mm MBO. On the procedure:
as §2, §3, §4, §5, §6

Assay [6] deals with BBB (blood vessels) in mouse brain organotypic cultures. The settings on record: 450 μM histamine; for blood vessel leakage: 1 hour; for percentage of leaky vessels (IgG extravasated out of blood vessels): 2 mm MBO. On the procedure: as §2, §3, §4, §5, §6

Take Pertussis toxin [PT]: the “IgG binding to neurons in brain cortex” value in the assay with BBB, mouse brain (S100BKO mice treated with PT, FIG. 18D) is listed as “intensely bound by IgG”. For the same compound, the “IgG-positive staining in brain cortex” value with BBB, mouse brain (wild type (WT) mice with PT treatment, FIG. 18B) is reported as “IgG-positive microvascular leaks”. Also, in the assay with retinal neurons, the “retinal neuronal damage by SV2 and MAP2 immunostaining” value is reported as “displays retinal neuronal damages”.

For `NCCc1c[nH]cn1` [histamine], the “BRB integrity, location of IgG” value in assay [1] (retinal slices after histamine treatment, FIG. 7) is “BRB breakdown and extravasated IgG surrounding blood vessels”. In addition, the “IgG in neurons (indicator of BRB breach)” value in assay [1] was “neurons were loaded with IgG”. Also, the “Muller cell processes (GFAP staining, width)” value with Muller cell processes is reported as “Compromised”. For the same compound, the MAP2 expression entry in assay [2] was “decrease in MAP2 expression”. The GFAP expression entry in assay [3] was “elevation in GFAP expression”. In [4] (1 hour, 1 mm MBOs), the neuronal damage-responses is listed as 51.8%. Moreover, in assay [4] (1 hour, 2 mm MBOs), the “vimentin expression by neurons” value came out at 46.5%. The vimentin-positive neurons came to 47.5% in assay [4] (1 hr, distal portion); 45.1% in assay [4] (1 hr, middle portion); 47% in assay [4] (1 hr, proximal portion). For the same compound, the “increase in neurons expressing vimentin compared to control sections” value in [4] (1 hr, MBO, FIG. 5C) is listed as “greater than four-fold”. In addition, the astrocyte activation in assay [5] (1 hour, 1 mm MBOs) is 47.7%. The “GFAP expression by astrocytes” value in [5] (1 hour, 2 mm MBOs) was determined as 45.7%. Besides, the “GFAP-positive astrocytes (GFAP expression)” value in [5] (distal portion) stood at 48.4%; in [5] (middle portion) it was 45.1%; in [5] (proximal portion), 43.6%. The blood vessel leakage in assay [6] (1 mm MBOs) is 30.9%; in [6] (2 mm MBOs), 24.4%. Further, the “percentage of leaky vessels (IgG extravasated out of blood vessels)” value was found to be 32.4% in assay [6] (1 hr, distal portion (700-1050 μm)); 24.7% in assay [6] (1 hr, middle portion (350-700 μm)); 19.9% in assay [6] (1 hr, proximal portion (0-350 μm)). Besides, the “perivascular leakage, histamine treated compared to controls, overall” value in assay [6] (1 hr, MBO, FIG. 5A) is on record as “more than two-fold”.

Consider `CCCCC[C@H](O)/C=C/C=C\C=C\C=C\[C@@H](O)[C@@H](O)CCCC(=O)O` [LXA4, lipoxin A4], for which the “IgG in neurons (indicator of BRB breach)” value in [1] is on record as “conferred protection from these effects”. Besides, in the assay with Muller cell processes, the “Muller cell processes (GFAP staining, width)” value is reported as “Rescued”.
